Reference: ChEMBL document CHEMBL5380777, “Efficacy, Mechanism, and Structure-Activity Relationship of 6-Methoxy Benzofuran Derivatives as a Useful Tool for Senile Osteoporosis” (J Med Chem, 2023)
Active and inactive are the calls of the source. The calls are words filed in the database; no cut-off is given here.

What was measured:
Danio rerio [1] = species on record: Danio rerio; assay: Anti osteoporosis activity in prednisone induced wildtype 3 days post-fertilization AB zebrafish osteoporosis model assessed as increase in bone fluorescence intensity (RVB = 13620 +/- 1692); type: functional
[2] = AUC (0 to infinity) in Sprague-Dawley rat by measuring metabolite 6-methoxybenzofuran-2-carboxylic acid at 2 mg/kg, iv; type: ADME, organism-based; design: dose 2 mg/kg, route iv; conditions: in vivo
Cytochrome P450 2C19 = Cytochrome P450 2C19 (Homo sapiens, UniProt P33261); assay: Inhibition of CYP2C19 (unknown origin) using mephenytoin as substrate (reference value: 2.77 uM); type: ADME
Cytochrome P450 2C19, sequence (P33261 whole entry): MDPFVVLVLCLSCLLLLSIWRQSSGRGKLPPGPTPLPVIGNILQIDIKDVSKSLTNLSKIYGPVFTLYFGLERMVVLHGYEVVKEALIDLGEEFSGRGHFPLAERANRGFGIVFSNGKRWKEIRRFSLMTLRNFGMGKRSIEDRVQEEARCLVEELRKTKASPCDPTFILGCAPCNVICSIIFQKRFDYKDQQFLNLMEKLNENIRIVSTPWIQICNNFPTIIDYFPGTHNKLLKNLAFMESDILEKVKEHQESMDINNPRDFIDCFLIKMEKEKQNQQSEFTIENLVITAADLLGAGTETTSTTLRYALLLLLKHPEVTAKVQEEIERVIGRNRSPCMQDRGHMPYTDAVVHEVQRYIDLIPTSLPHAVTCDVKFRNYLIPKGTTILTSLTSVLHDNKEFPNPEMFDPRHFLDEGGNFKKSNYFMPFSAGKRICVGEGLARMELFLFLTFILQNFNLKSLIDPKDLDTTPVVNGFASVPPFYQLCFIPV

[3] = AUC (0 to infinity) in Sprague-Dawley rat by measuring metabolite 6-methoxybenzofuran-2-carboxylic acid at 10 mg/kg, po; type: ADME, organism-based; design: dose 10 mg/kg, route po; conditions: in vivo
[4] = Half life in Sprague-Dawley rat by measuring metabolite 6-methoxybenzofuran-2-carboxylic acid at 2 mg/kg, iv; type: ADME, organism-based; conditions: in vivo
[5] = Permeability from basolateral to apical side in human Caco-2 cells assessed as recovery incubated upto 95 mins by LC-MS/MS analysis relative control; type: ADME, cell-based; conditions: read-out: Drug recovery
Cytochrome P450 1A2 = molecular target: T1, Cytochrome P450 1A2 (Homo sapiens, UniProt P05177); assay: Inhibition of CYP1A2 (unknown origin) using phenacetin as substrate (reference value: 0.0292 uM); type: ADME
T1 sequence (P05177 whole entry): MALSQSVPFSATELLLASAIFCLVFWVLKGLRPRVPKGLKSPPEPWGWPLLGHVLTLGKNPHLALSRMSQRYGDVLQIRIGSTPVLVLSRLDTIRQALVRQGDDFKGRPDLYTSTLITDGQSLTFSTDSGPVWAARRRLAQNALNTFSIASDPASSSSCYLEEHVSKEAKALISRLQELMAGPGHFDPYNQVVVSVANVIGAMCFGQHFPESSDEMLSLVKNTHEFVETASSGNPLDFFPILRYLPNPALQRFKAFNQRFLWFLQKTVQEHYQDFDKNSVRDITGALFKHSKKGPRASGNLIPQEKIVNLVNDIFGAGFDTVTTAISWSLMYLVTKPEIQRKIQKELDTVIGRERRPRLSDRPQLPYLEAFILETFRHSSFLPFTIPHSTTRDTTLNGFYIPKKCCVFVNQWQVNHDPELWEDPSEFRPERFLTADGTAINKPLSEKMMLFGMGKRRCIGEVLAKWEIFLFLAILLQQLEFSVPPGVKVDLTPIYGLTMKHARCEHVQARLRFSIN

Cytochrome P450 3A4 [6] = molecular target: T2, Cytochrome P450 3A4 (Homo sapiens, UniProt P08684); assay: Inhibition of CYP3A4 (unknown origin) using midazolam as substrate (reference value: 0.0413 uM); type: ADME
T2 sequence (P08684 whole entry): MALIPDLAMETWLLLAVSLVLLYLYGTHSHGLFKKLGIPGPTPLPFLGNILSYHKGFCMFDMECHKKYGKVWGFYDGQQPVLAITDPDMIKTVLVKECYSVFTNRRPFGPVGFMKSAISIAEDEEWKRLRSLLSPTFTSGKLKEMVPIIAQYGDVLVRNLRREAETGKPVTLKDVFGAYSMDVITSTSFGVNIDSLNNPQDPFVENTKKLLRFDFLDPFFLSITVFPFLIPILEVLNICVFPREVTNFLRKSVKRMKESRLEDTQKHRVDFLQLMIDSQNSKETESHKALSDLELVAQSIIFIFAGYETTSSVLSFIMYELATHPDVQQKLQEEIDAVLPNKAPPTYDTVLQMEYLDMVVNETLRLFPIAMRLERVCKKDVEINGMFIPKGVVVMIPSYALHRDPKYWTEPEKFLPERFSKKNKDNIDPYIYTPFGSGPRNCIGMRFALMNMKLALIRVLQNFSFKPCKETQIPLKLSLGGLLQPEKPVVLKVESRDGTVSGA

MC3T3-E1 [7] = assay: Induction of ALP activity in mouse MC3T3-E1 cells in osteogenic differentiation culture at 1 uM measured on day 7; type: functional, cell-based; conditions: time 7.0 day
Danio rerio [8] = species on record: Danio rerio; assay: Anti osteoporosis activity in prednisone induced wildtype 3 days post-fertilization AB zebrafish osteoporosis model assessed as increase in bone mass at 1.25 uM relative to normal control group; type: functional, organism-based
[9] = MRT (0 to infinity) in Sprague-Dawley rat by measuring metabolite 6-methoxybenzofuran-2-carboxylic acid at 2 mg/kg, iv; type: ADME, organism-based; conditions: in vivo
Cytochrome P450 2C9 = Cytochrome P450 2C9 (Homo sapiens, UniProt P11712); assay: Inhibition of CYP2C9 (unknown origin) using tolbutamide as substrate (reference value: 1.9 uM); type: ADME
Cytochrome P450 2C9, sequence (P11712 whole entry): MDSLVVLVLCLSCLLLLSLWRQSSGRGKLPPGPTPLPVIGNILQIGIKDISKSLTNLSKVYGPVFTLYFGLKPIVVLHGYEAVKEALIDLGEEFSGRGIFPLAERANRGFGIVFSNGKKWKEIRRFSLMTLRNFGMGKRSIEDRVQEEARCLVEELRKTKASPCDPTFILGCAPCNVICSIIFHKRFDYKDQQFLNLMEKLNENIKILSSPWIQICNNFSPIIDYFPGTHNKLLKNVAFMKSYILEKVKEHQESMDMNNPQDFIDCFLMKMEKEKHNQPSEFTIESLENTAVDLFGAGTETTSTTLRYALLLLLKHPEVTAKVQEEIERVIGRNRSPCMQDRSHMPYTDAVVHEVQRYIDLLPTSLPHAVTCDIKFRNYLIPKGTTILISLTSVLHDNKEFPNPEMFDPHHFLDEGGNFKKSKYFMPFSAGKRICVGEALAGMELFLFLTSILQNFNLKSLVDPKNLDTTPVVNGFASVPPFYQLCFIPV

hERG (KCNH2) [10] = molecular target: T3, hERG (KCNH2) (Homo sapiens, UniProt Q12809); assay: Inhibition of human ERG stably expressed in CHO cells at 1 uM by whole-cell patch clamp method relative to control; type: toxicity, cell-based; conditions: CHO cells stably expressing human ERG
T3 sequence (Q12809 whole entry): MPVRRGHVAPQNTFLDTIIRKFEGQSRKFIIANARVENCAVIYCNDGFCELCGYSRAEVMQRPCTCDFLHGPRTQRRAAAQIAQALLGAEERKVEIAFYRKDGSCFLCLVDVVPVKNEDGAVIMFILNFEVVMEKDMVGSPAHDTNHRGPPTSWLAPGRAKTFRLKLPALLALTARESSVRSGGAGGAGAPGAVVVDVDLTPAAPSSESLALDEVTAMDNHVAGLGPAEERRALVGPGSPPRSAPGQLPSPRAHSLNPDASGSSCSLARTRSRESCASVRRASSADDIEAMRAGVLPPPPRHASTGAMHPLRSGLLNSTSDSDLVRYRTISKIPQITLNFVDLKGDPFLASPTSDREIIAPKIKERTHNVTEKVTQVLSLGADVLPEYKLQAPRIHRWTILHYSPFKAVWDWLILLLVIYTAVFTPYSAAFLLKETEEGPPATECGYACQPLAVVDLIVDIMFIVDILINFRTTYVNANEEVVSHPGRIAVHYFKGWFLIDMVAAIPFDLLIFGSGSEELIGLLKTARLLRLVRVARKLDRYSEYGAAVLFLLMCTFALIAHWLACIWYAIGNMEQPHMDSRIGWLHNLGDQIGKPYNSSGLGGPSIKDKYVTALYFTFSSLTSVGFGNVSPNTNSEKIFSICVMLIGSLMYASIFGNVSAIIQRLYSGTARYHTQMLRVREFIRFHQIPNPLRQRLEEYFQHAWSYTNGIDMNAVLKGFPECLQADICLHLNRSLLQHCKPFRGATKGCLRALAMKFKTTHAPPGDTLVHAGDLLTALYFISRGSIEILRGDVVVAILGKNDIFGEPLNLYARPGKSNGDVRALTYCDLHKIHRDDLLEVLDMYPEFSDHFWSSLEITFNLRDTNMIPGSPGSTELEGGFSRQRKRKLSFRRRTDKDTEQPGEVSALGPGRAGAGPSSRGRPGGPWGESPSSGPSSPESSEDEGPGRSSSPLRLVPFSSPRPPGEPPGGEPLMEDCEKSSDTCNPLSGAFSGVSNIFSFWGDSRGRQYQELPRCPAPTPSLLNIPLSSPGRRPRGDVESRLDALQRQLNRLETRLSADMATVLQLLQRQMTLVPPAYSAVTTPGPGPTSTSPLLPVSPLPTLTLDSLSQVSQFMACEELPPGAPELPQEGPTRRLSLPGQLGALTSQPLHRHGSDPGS

[11] = AUC (0 to t) in Sprague-Dawley rat by measuring metabolite 6-methoxybenzofuran-2-carboxylic acid at 10 mg/kg, po; type: ADME, organism-based; design: dose 10 mg/kg, route po; conditions: in vivo
Cytochrome P450 3A4 [12] = molecular target: T2, Cytochrome P450 3A4; assay: Inhibition of CYP3A4 (unknown origin) using testosterone as substrate (reference value: 0.0227 uM); type: ADME
Danio rerio [13] = species on record: Danio rerio; assay: Anti osteoporosis activity in prednisone induced wildtype 3 days post-fertilization AB zebrafish osteoporosis model assessed as increase in bone mass; type: functional, organism-based; conditions: dose 0.078-1.25 µM
[14] = Cmax in Sprague-Dawley rat by measuring metabolite 6-methoxybenzofuran-2-carboxylic acid at 2 mg/kg, iv; type: ADME, organism-based; design: dose 2 mg/kg, route iv; conditions: in vivo
Danio rerio [15] = species on record: Danio rerio; assay: Anti osteoporosis activity in prednisone induced wildtype 3 days post-fertilization AB zebrafish osteoporosis model assessed as increase in bone fluorescence intensity; type: functional, organism-based; conditions: dose 0.078-1.25 µM
[16] = Efflux ratio of apparent permeability from basolateral side to apical side over apical side to basolateral side in human Caco-2 cells; type: ADME, cell-based
[17] = Permeability from apical to basolateral side in human Caco-2 cells assessed as recovery incubated upto 95 mins by LC-MS/MS analysis relative control; type: ADME, cell-based; conditions: read-out: Drug recovery
hERG (KCNH2) [18] = molecular target: T3, hERG (KCNH2); assay: Inhibition of human ERG stably expressed in CHO cells at 0.1 uM by whole-cell patch clamp method relative to control; type: toxicity, cell-based; conditions: CHO cells stably expressing human ERG
[19] = Apparent permeability from apical to basolateral side in human Caco-2 cells incubated upto 95 mins by LC-MS/MS analysis; type: ADME, cell-based; conditions: read-out: permeability
hERG (KCNH2) [20] = molecular target: T3, hERG (KCNH2); assay: Inhibition of human ERG stably expressed in CHO cells at 3 uM by whole-cell patch clamp method relative to control; type: toxicity, cell-based; conditions: CHO cells stably expressing human ERG
[21] = Tmax in Sprague-Dawley rat by measuring metabolite 6-methoxybenzofuran-2-carboxylic acid at 10 mg/kg, po; type: ADME, organism-based; conditions: in vivo
[22] = AUC (0 to t) in Sprague-Dawley rat by measuring metabolite 6-methoxybenzofuran-2-carboxylic acid at 2 mg/kg, iv; type: ADME, organism-based; design: dose 2 mg/kg, route iv; conditions: in vivo
[23] = Volume of distribution at steady state in Sprague-Dawley rat by measuring metabolite 6-methoxybenzofuran-2-carboxylic acid at 2 mg/kg, iv; type: ADME, organism-based; conditions: in vivo
[24] = Apparent permeability from basolateral to apical side in human Caco-2 cells incubated upto 95 mins by LC-MS/MS analysis; type: ADME, cell-based; conditions: read-out: permeability
Cytochrome P450 2D6 = Cytochrome P450 2D6 (Homo sapiens, UniProt P10635); assay: Inhibition of CYP2D6 (unknown origin) using dextromethorphan as substrate (reference value: 0.0445 uM); type: ADME
Cytochrome P450 2D6, sequence (P10635 whole entry): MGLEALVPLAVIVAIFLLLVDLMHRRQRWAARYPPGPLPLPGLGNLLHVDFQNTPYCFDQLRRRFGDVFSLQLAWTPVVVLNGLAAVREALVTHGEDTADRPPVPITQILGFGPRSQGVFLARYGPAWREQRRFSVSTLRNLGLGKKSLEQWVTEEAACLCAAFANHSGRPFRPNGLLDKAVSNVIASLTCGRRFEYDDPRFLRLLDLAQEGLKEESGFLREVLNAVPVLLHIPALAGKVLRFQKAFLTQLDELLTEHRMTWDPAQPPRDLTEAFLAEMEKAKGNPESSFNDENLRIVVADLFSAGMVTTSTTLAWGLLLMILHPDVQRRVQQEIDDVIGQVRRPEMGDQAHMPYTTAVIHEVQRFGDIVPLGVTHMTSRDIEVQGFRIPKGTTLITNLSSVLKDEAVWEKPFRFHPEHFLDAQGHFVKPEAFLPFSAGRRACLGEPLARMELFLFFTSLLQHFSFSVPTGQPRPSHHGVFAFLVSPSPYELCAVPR

[25] = Cmax in Sprague-Dawley rat by measuring metabolite 6-methoxybenzofuran-2-carboxylic acid at 10 mg/kg, po; type: ADME, organism-based; design: dose 10 mg/kg, route po; conditions: in vivo
hERG (KCNH2) [26] = molecular target: T3, hERG (KCNH2); assay: Inhibition of human ERG stably expressed in CHO cells at 10 uM by whole-cell patch clamp method relative to control; type: toxicity, cell-based; conditions: CHO cells stably expressing human ERG
[27] = Half life in Sprague-Dawley rat by measuring metabolite 6-methoxybenzofuran-2-carboxylic acid at 10 mg/kg, po; type: ADME, organism-based; conditions: in vivo
hERG (KCNH2) [28] = molecular target: T3, hERG (KCNH2); assay: Inhibition of human ERG stably expressed in CHO cells at 0.3 uM by whole-cell patch clamp method relative to control; type: toxicity, cell-based; conditions: CHO cells stably expressing human ERG
Danio rerio [29] = species on record: Danio rerio; assay: Anti osteoporosis activity in prednisone induced wildtype 3 days post-fertilization AB zebrafish osteoporosis model assessed as increase in osteoblast by measuring fluorescence intensity; type: functional, organism-based; conditions: dose 0.078-1.25 µM
[30] = MRT (0 to infinity) in Sprague-Dawley rat by measuring metabolite 6-methoxybenzofuran-2-carboxylic acid at 10 mg/kg, po; type: ADME, organism-based; conditions: in vivo
[31] = Oral bioavailability in Sprague-Dawley rat by measuring metabolite 6-methoxybenzofuran-2-carboxylic acid at 10 mg/kg; type: ADME, organism-based; conditions: in vivo
MC3T3-E1 [32] = assay: Cytotoxicity against mouse MC3T3-E1 cells; type: toxicity, cell-based

COc1ccc2cc(C(=O)NCCCCN(C)C)oc2c1
Flu intensity (Danio rerio [1]): 25439

COc1ccc2cc(C(=O)NCCN3CCCCC3)oc2c1
Flu intensity (Danio rerio [1]): 23225

COc1ccc2cc(C(=O)NCC(=O)NCCN3CCCC3)oc2c1
Flu intensity (Danio rerio [1]): 21953

COc1ccc2cc(C(=O)NCC(=O)NCCN(C)C)oc2c1
Flu intensity (Danio rerio [1]): 23919

COc1ccc2cc(C(=O)OCCN3CCOCC3)oc2c1
AUC [2]: 4635 ng·h/mL | IC50 (Cytochrome P450 2C19): > 25 µM | AUCt [3]: 25873 ng·h/mL | t1/2 [4]: 2.15 h | recovery at 1.583 h [5]: 74.3% | IC50 (Cytochrome P450 1A2): 17 µM | IC50 (Cytochrome P450 3A4 [6]): > 25 µM | Activity (MC3T3-E1 [7]): Active | Activity (Danio rerio [8]): Active | MRT [9]: 1.25 h | IC50 (Cytochrome P450 2C9): > 25 µM | inhibition at 1 µM (hERG (KCNH2) [10]): 6.15% | AUCt [11]: 25724 ng·h/mL | IC50 (Cytochrome P450 3A4 [12]): > 25 µM | Activity (Danio rerio [13]): Dose-Dependent Effect | Cmax [14]: 3943 ng/mL | Activity (Danio rerio [15]): Dose-Dependent Effect | efflux ratio [16]: 1.65 | recovery at 1.583 h [17]: 22.7% | inhibition at 0.1 µM (hERG (KCNH2) [18]): 4.69% | Papp A→B at 1.583 h [19]: 3.35 ×10⁻⁶ cm/s | inhibition at 3 µM (hERG (KCNH2) [20]): 9.81% | Tmax [21]: 0.25 h | AUC [22]: 4557 ng·h/mL | Vdss [23]: 0.545 L/kg | Papp B→A at 1.583 h [24]: 5.53 ×10⁻⁶ cm/s | IC50 (Cytochrome P450 2D6): > 25 µM | Flu intensity (Danio rerio [1]): 33746 | Cmax [25]: 10380 ng/mL | inhibition at 10 µM (hERG (KCNH2) [26]): 20.6% | t1/2 [27]: 3.07 h | inhibition at 0.3 µM (hERG (KCNH2) [28]): 2.36% | Activity (Danio rerio [29]): Dose-Dependent Effect | MRT [30]: 2.26 h | F [31]: 113%

COc1ccc2cc(C(=O)N3CCN(C)CC3)oc2c1
Flu intensity (Danio rerio [1]): 23902

COc1ccc2cc(C(=O)N3CCC(O)CC3)oc2c1
Flu intensity (Danio rerio [1]): 20648

COc1ccc2cc(C(=O)NCC(=O)NCCN3CCCCC3)oc2c1
Activity (MC3T3-E1 [7]): Active | Flu intensity (Danio rerio [1]): 31141

COc1ccc2cc(C(=O)N3CCC(c4ccc(F)cc4)CC3)oc2c1
Flu intensity (Danio rerio [1]): 13963

COc1ccc2cc(C(=O)OCCN3CCCC3)oc2c1
Flu intensity (Danio rerio [1]): 24697

COc1ccc2cc(C(=O)NCC(=O)OCCN(C)C)oc2c1
Flu intensity (Danio rerio [1]): 26758

COc1ccc2cc(C(=O)OCCN3CCN(C)CC3)oc2c1
Flu intensity (Danio rerio [1]): 23765

COc1ccc2cc(C(=O)N3CCC(c4ccncc4)CC3)oc2c1
Flu intensity (Danio rerio [1]): 30379 | Activity (MC3T3-E1 [32]): Toxic

COc1ccc2cc(C(=O)N[C@H](C)C(=O)O)oc2c1
Flu intensity (Danio rerio [1]): 17768

COc1ccc2cc(C(=O)NC3CCC(O)CC3)oc2c1 (stereo not drawn)
Flu intensity (Danio rerio [1]): 25882

COc1ccc2cc(C(=O)N[C@H](CC(C)C)C(=O)O)oc2c1
Flu intensity (Danio rerio [1]): 20236

CCN(CC)CCCCNC(=O)c1cc2ccc(OC)cc2o1
Flu intensity (Danio rerio [1]): 21289

CC(O)(P(=O)([O-])O)P(=O)([O-])O.[Na+].[Na+] [ETIDRONATE DISODIUM]
Flu intensity (Danio rerio [1]): 23897

COc1ccc2cc(C(=O)NCCN3CCNCC3)oc2c1
Flu intensity (Danio rerio [1]): 21709

COc1ccc2cc(C(=O)N[C@@H](C(=O)O)C(C)C)oc2c1
Activity (MC3T3-E1 [7]): Active | Flu intensity (Danio rerio [1]): 30880

COc1ccc2cc(C(=O)NCC(=O)O)oc2c1
Flu intensity (Danio rerio [1]): 22567

COc1ccc2cc(C(=O)NCCN3CCN(C)CC3)oc2c1
Flu intensity (Danio rerio [1]): 25904

COc1ccc2cc(C(=O)NCCN3CCOCC3)oc2c1
Flu intensity (Danio rerio [1]): 26682

COc1ccc2cc(C(=O)N3CCC(C(F)(F)F)CC3)oc2c1
Flu intensity (Danio rerio [1]): 16975

COc1ccc2cc(C(=O)NCCCN(C)C)oc2c1
Flu intensity (Danio rerio [1]): 18114

COc1ccc2cc(C(=O)OCCN3CCCCC3)oc2c1
Flu intensity (Danio rerio [1]): 23536

COc1ccc2cc(C(=O)N[C@H](Cc3ccccc3)C(=O)O)oc2c1
Flu intensity (Danio rerio [1]): 27422

COc1ccc2cc(C(=O)NCCN3CCCC3)oc2c1
Flu intensity (Danio rerio [1]): 20961

CCN(CC)CCCNC(=O)c1cc2ccc(OC)cc2o1
Activity (MC3T3-E1 [7]): Active | Flu intensity (Danio rerio [1]): 31394

COc1cc(N)c(Cl)cc1C(=O)NC1CCN(CCCOc2ccc(F)cc2)CC1OC (stereo not drawn) [CISAPRIDE]
inhibition at 0.3 µM (hERG (KCNH2) [28]): 98.2%
